As a reminder, the pIC50 is −log10 of the IC50, conventionally taken in molar units. By pKi is commonly meant the negative decadic logarithm of the Ki, by convention in mol/L.

The target of the experiment is T1, human GHSR1a (Homo sapiens, UniProt Q92847).
T1 construct: expressed in transfected cells; host or cells: HEK293 Tetracycline-Inducible cell line, used as membranes
The experiment is described as follows: Human Ghrelin SPA Binding Assay. From the text:
The SPA format was utilized for high throughput screening of test compounds and filter binding served for more comprehensive binding characterization.
Human Ghrelin SPA Binding Assay

Where [1] appears, read: SPA format, [125I] ghrelin displacement, human GHSR1a membranes from HEK293 Tetracycline-Inducible cell line.

pIC50, pKi: −log10 of the molar value. Where two headings read alike, the source gives them in different places.

T1 sequence (Q92847 whole entry): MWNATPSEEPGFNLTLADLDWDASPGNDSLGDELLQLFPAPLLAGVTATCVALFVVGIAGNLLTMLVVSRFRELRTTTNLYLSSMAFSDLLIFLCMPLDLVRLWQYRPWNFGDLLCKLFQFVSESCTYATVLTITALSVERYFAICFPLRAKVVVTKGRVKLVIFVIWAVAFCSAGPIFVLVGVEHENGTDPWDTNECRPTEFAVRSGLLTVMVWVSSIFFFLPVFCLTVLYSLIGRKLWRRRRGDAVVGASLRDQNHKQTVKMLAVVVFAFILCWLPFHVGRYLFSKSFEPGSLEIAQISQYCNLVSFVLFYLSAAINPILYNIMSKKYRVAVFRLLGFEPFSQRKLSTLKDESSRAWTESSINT

`COc1ccc(CC(=O)N2CCC3(CC2)CN(C2CCc4cc(-c5nccc(C)n5)ccc42)C3)cc1` (stereo not drawn) [Example 1J] gave a pIC50 of 8.28 and a pKi of 8.29.
`O=C(Cc1cc2n(n1)CCCC2)N1CCC2(CC1)CN(C1CCc3cc(-c4ncccn4)ccc31)C2` (racemic) [Example 5I] had a pIC50 of 8.07 and a pKi of 8.03.
For the compound `Cc1cc(-c2ccc3c(c2)CC[C@H]3N2CC3(CCN(C(=O)Cc4cn5nccnc5n4)CC3)C2)ncn1` [Example 3AY], the pIC50 was 6.31 and the pKi was 6.36.
In turn, `COc1ccc(CC(=O)N2CCC3(CC2)CN([C@@H]2CCc4cc(-c5ccc(C(N)=O)cc5)ccc42)C3)nc1` [Example 4D] showed a pIC50 of 7.70 and a pKi of 7.76.
Take `Cc1ccnc(-c2ccc3c(c2)CCC3N2CC3(CCN(C(=O)Cc4cn5cc(C)sc5n4)CC3)C2)n1` (stereo not drawn) [Example 1K]: the pIC50 was 7.59.
As to `NC(=O)c1cnc(-c2ccc3c(c2)CC[C@H]3N2CC3(CCN(C(=O)Cc4cn5ccccc5n4)CC3)C2)cn1` [Example 10C], the pIC50 is 7.03 and the pKi is 7.09.
On to `COc1ccc(CC(=O)N2CCC3(CC2)CN(C2CCc4cc(-c5cc(C)ccn5)ccc42)C3)nc1` (racemic) [Example 2G], for which the pIC50 was 8.21.
Compound `CCn1ccc(CC(=O)N2CCC3(CC2)CN([C@@H]2CCc4cc(-c5ncccn5)ccc42)C3)n1` [Example 3AS] showed a pIC50 of 6.84 and a pKi of 6.92.
As to `Cc1cn2cc(CC(=O)N3CCC4(CC3)CN(C3CCc5cc(-c6ncccn6)ccc53)C4)nc2s1` (stereo not drawn) [Example 1B], the pKi is 8.34. The compound further gave a pIC50 under setting [1] of 8.42.
The compound `CCc1ccc(CC(=O)N2CCC3(CC2)CN([C@@H]2CCc4cc(-c5ncccn5)ccc42)C3)cc1` [Example 5F] had a pIC50 of 7.89 and a pKi of 7.98.
In turn, `CCc1ccc(CC(=O)N2CCC3(CC2)CN([C@@H]2CCc4cc(-c5ccc(C(N)=O)cc5)ccc42)C3)nc1` [Example 4C] had a pIC50 of 7.31 and a pKi of 7.36.
Regarding `COc1ccc(CC(=O)N2CCC3(CC2)CN([C@@H]2CCc4cc(-c5ncccn5)ccc42)C3)c(C(N)=O)c1` [Example 7B], the pIC50 is 7.59 and the pKi was 7.65.
The compound `COc1ccc(CC(=O)N2CCC3(CC2)CN(C2CCc4cc(-c5nccs5)ccc42)C3)nc1` (racemic) [Example 1F] showed a negative-log Ki (pKi) of 7.64.
With `COc1ccc(CC(=O)N2CCC3(CC2)CN([C@@H]2CCc4ccccc42)C3)cc1` [Example 3AJ], the pIC50 is 6.53 and the pKi is 6.58.
With `Cc1ccc(CC(=O)N2CCC3(CC2)CN([C@@H]2CCc4cc(-c5nccc(C)n5)ccc42)C3)nc1` [Example 3T], the pIC50 was 7.08 and the pKi was 7.14.
`Cc1nn2cc(CC(=O)N3CCC4(CC3)CN([C@@H]3CCc5cc(-c6ncccn6)ccc53)C4)nc2s1` [Example 3O]: the pIC50 was 7.52 and the pKi was 7.55.
Compound `COc1ccc(CC(=O)N2CCC3(CC2)CN([C@@H]2CCc4cc(-n5cc(C)cn5)ccc42)C3)nc1` [Example 8A, 7-[(5-methoxypyridin-2-yl)acetyl]-2-[(1R)-5-(4-methyl-1H-pyrazol-1-yl)-2,3-dihydro-1H-inden-1-yl]-2,7-diazaspiro[3.5]nonane] showed a pIC50 of 7.54 and a pKi of 7.61.
Take `O=C(Cc1ccc(C(F)F)cn1)N1CCC2(CC1)CN([C@@H]1CCc3cc(-c4ncccn4)ccc31)C2` [Example 3AW]: the pIC50 is 6.02 and the negative logarithm of the Ki (pKi) is 6.11.
In turn, `COc1ccc(CC(=O)N2CCC3(CC2)CN(C2CCc4cc(-c5nccs5)ccc42)C3)nc1` (stereo not drawn) [Example 1F-1] showed a pKi of 8.40. Moreover, the pIC50 under setting [1] was 8.26.
With `Cc1nn2cc(CC(=O)N3CCC4(CC3)CN(C3CCc5cc(-n6nccn6)ccc53)C4)nc2s1` (stereo not drawn) [Example 1H], the pIC50 was 7.96 and the pKi was 7.98.
The compound `COc1ccc(CC(=O)N2CCC3(CC2)CN(C2CCc4cc(-c5ncc(OC)cn5)ccc42)C3)nc1` (racemic) [Example 2E] gave a pIC50 of 7.45 and a pKi of 7.20.
The compound `CCc1ccc(CC(=O)N2CCC3(CC2)CN([C@@H]2CCc4cc(-c5cnc(C(N)=O)cn5)ccc42)C3)nc1` [Example 10H] gave a pIC50 of 6.85 and a pKi of 6.91.
In the case of `O=C(Cc1n[nH]c2ccccc12)N1CCC2(CC1)CN(C1CCc3cc(-c4ncccn4)ccc31)C2` (stereo not drawn) [Example 1C], the pIC50 is 7.78 and the pKi was 7.85.
For `O=C(Cc1ccc(C2CC2)cc1)N1CCC2(CC1)CN(C1CCc3cc(-c4ncccn4)ccc31)C2` (racemic) [Example 5A, 7-[(4-Cyclopropylphenyl)acetyl]-2-(5-pyrimidin-2-yl-2,3-dihydro-1H-inden-1-yl)-2,7-diazaspiro[3.5]nonane], in that order: 8.15 and 8.21.
For `COc1ccc(CC(=O)N2CCC3(CC2)CN([C@@H]2CCc4cc(-n5cc(C)cn5)ccc42)C3)cc1` [Example 8B], in that order: 7.98 and 8.05.
Compound `COc1ccc(CC(=O)N2CCC3(CC2)CN([C@@H]2CCc4cc(-c5ccncn5)ccc42)C3)nc1` [Example 3AE] had a pIC50 of 7.14 and a pKi of 7.16.
The compound `COc1ccc(CC(=O)N2CCC3(CC2)CN(C2CCc4cc(Oc5ccccc5)ccc42)C3)nc1` (racemic) [Example 1I] had a pIC50 of 7.44 and a pKi of 7.53.
`COc1ccc(CC(=O)N2CCC3(CC2)CN([C@@H]2CCc4cc(-n5cncn5)ccc42)C3)nc1` [Example 6I] showed a pIC50 of 6.32 and a negative logarithm of the Ki (pKi) of 6.38.
As for `COc1ccc(CC(=O)N2CCC3(CC2)CN([C@@H]2CCc4cc(-c5ccc(C(N)=O)cn5)ccc42)C3)nc1` [Example 11A, 6-((R)-1-{7-[2-(5-Methoxy-pyridin-2-yl)-acetyl]-2,7-diaza-spiro[3.5]non-2-yl}indan-5-yl)-nicotinamide], the pIC50 is 7.48 and the pKi was 7.54.
The compound `CCc1cc(-c2ccc3c(c2)CC[C@H]3N2CC3(CCN(C(=O)Cc4ccc(OC)cc4C#N)CC3)C2)ncn1` [Example 3AB] gave a pIC50 of 7.48 and a pKi of 7.54.
In turn, `Cc1ccn2cc(CC(=O)N3CCC4(CC3)CN([C@@H]3CCc5cc(-c6ccc(C(N)=O)cc6)ccc53)C4)nc2c1` [Example 4A, 4-[(1R)-1-{7-[(7-methylimidazo[1,2-a]pyridin-2-yl)acetyl]-2,7-diazaspiro[3.5]non-2-yl}-2,3-dihydro-1H-inden-5-yl]benzamide] had a pIC50 of 8.03 and a negative logarithm of the Ki (pKi) of 8.10.
In turn, `NC(=O)c1ccc(-c2ccc3c(c2)CC[C@H]3N2CC3(CCN(C(=O)Cc4cn5ccccc5n4)CC3)C2)cn1` [Example 9E] had a pIC50 of 7.47 and a pKi of 7.54.
The compound `O=C(Cc1ccc(C(F)(F)F)cc1)N1CCC2(CC1)CN([C@@H]1CCc3cc(-c4ncccn4)ccc31)C2` [Example 3AH] had a pIC50 of 7.04 and a pKi of 7.14.
For `Cc1ccc(CC(=O)N2CCC3(CC2)CN([C@@H]2CCc4cc(-c5ncccn5)ccc42)C3)c(C(N)=O)c1` [Example 7A], in that order: 7.37 and 7.43.
In turn, `Cc1ccn2cc(CC(=O)N3CCC4(CC3)CN([C@@H]3CCc5cc(-c6cnc(C(N)=O)cn6)ccc53)C4)nc2c1` [Example 10B] had a pIC50 of 7.63 and a pKi of 7.69.
`Cc1ccnc(-c2ccc3c(c2)CC[C@H]3N2CC3(CCN(C(=O)Cc4cn5nc(C)sc5n4)CC3)C2)n1` [Example 3Y] showed a pIC50 of 7.51 and a pKi of 7.59.
With `COc1ccc(CC(=O)N2CCC3(CC2)CN([C@@H]2CCc4cc(-c5cc(C(N)=O)ncn5)ccc42)C3)nc1` [Example 10D], the pIC50 was 7.02 and the pKi is 7.08.
Take `COc1ccc(CC(=O)N2CCC3(CC2)CN(C2CCc4cc(-c5ncc(C)s5)ccc42)C3)nc1` (stereo not drawn) [Example 1G]: the pIC50 is 8.12 and the pKi is 8.06.
Turning to `O=C(Cc1cn2ccccc2n1)N1CCC2(CC1)CN([C@@H]1CCc3cc(-c4ncccn4)ccc31)C2` [Example 3Q], the pIC50 is 7.58 and the pKi is 7.64.
For `O=C(Cc1ccc(C2CC2)cc1)N1CCC2(CC1)CN([C@@H]1CCc3cc(-c4ncccn4)ccc31)C2` [Example 5A-1, (R)-7-[(4-cyclopropylphenyl)acetyl]-2-(5-pyrimidin-2-yl-2,3-dihydro-1H-inden-1-yl)-2,7-diazaspiro[3.5]nonane], in that order: 8.35 and 8.42.
On to `Cc1cn2cc(CC(=O)N3CCC4(CC3)CN([C@@H]3CCc5cc(-c6ccc(C(N)=O)nc6)ccc53)C4)nc2s1` [Example 9D], for which the pIC50 was 7.91 and the pKi is 7.98.
Take `O=C(Cc1ccc2c(n1)OCCO2)N1CCC2(CC1)CN([C@@H]1CCc3cc(-c4ncccn4)ccc31)C2` [Example 3R]: the pIC50 is 7.59 and the pKi was 7.65.
In turn, `CCc1ccc(CC(=O)N2CCC3(CC2)CN([C@@H]2CCc4cc(-n5nccn5)ccc42)C3)nc1` [Example 5D] showed a pIC50 of 7.73. The pKi (SPA format, [125I] ghrelin displacement, human GHSR1a membranes, Ki=IC50/(1+[ligand]/Kd)) was 7.79.
Compound `COc1ccc(CC(=O)N2CCC3(CC2)CN(C2CCc4cc(-c5ncc(C)cn5)ccc42)C3)cc1` (racemic) [Example 1E] had a pIC50 of 7.47.
In turn, `Cc1ccc(CC(=O)N2CCC3(CC2)CN([C@@H]2CCc4cc(-c5ccn(C)n5)ccc42)C3)nc1` [Example 3J] had a pIC50 of 7.28 and a pKi of 7.33.
The compound `COc1ccc(CC(=O)N2CCC3(CC2)CN([C@@H]2CCc4cc(-c5cc(C#N)ncn5)ccc42)C3)nc1` [Example 3AC] had a pIC50 of 7.39 and a pKi of 7.47.
For `Cc1ccc(CC(=O)N2CCC3(CC2)CN([C@@H]2CCc4cc(-c5ccc(C(N)=O)nc5)ccc42)C3)nc1` [Example 9C], the pIC50 is 6.93 and the pKi is 6.99.

Source of the values: US8609680B2, “2,3-dihydro-1H-inden-1-yl-2,7-diazaspiro[3.5] nonane derivatives” (Pfizer Inc., priority 2010, dated 2013).
